Measured values as given in patent publication US8802082B2, “Rhodamine derivatives for photodynamic diagnosis and treatment” (Université de Montreal, priority 1999, dated 2014).

How the values were obtained:
[1] = test system: PHA-activated PB mononuclear cells; assay: Phototoxicity against PHA-activated PB mononuclear cells (mixed lymphocyte reaction, 3H-thymidine; cell counts); assay type: cell-based, human
Description: Suspensions of cells were then incubated with 10 μM TH9402 for 40 minutes at 37° C. Cells were treated at 1×10^6 cells/mL in X-vivo-15 medium without phenol red (BioWhittaker, Walkersville, Md., USA) supplemented with 2,5% FBS. At the end of the incubation period, cells were spun down and the cell pellet resuspended in the X-vivo culture medium in the absence of dye, supplemented with 10% FBS. Cells were then placed in T-flasks (Corning, Cambridge, Mass., USA) for 90 minutes at 37° C. […]
Normal PBMC were activated by incubation at 37° C. for 48 to 72 hours in X-vivo-15 medium (Biowhittaker, Walkersville. Md. U.S.A.) supplemented with 20% AB serum (Sigma), 1% pen-strep (Gibco), 2% glutamin (Gibco) and 20 μg/ml of phytohemagglutinin-A (PHA-P)(Sigma). […] Following incubation, cells were washed and treated with the TH9402 photodynamic treatment as described above, and proliferative activity measured as described below.
The latter cells were serially diluted in order to obtain effector (treated cells) to target ratios ranging from 2:1 to 1:4 (4×10^4 treated effector cells/well) and incubated at 37° C. for 5 days. […] Radioactivity in the cell harvest was counted using a liquid scintillation counter (Beckman, Chicago, Ill., USA).
The phototoxicity of TH9402 against PHA-activated PB mononuclear cells was assessed after photodynamic treatment using 5 and 7.5 joules/cm^2 of light energy (FIG. 2). […]

[2] = test system: K562 chronic myelogeneous leukemia cell line; assay: Phototoxicity of TH9402, limiting dilution assay of clonogenic cells, K562 admixed with irradiated PBMC; assay type: cell-based; conditions: 10 μM TH9402 40 min, 90 min dye-free, 5 joules/cm^2, LDA 12-14 days
Description: (§1) T cells represent the most important population of immune cells present in the peripheral blood. […] Phototoxicity was also evaluated in parallel against the chronic myelogenous leukemia cell line K562, that had been used in U.S. Pat. Nos. 5,556,992 and 5,773,460. The CEM T cell acute lymphoblastic leukemia cell line and K562 chronic myelogeneous leukemia cell line (Lozzio, B. B. and Lozzio, C. B. (1979) Cancer Res., 3(6): 363-370) were obtained from the American Type Culture Collection (ATCC, 12301 Parklawn Drive, Rockville, Md. 20852 USA) under the accession number CCL-119 and CCL-243. Cultures were maintained at 37° C. in a humidified incubator with an atmosphere of 95% air and 5% CO2. […] Before each experiment, cell viability was assessed by trypan blue exclusion. […]
(§2) To assess the photochemotherapeutic potential and the in vitro phototoxicity of 4,5-dibromorhodamine 123 hydrobromide (TH9402), the T cell line CEM and the leukemic line K562 admixed with normal irradiated PBMC were incubated with TH9402 and exposed to 5 joules/cm^2 of light (as described above). […] Growth at each serial dilution was assessed in an “all-or-nothing” (positive or negative) fashion under an inverted phase microscope. […]

[3] = test system: cells from subject A, activated against B; assay: Allogeneic T cell activation (one-way mixed lymphocyte culture), PDT, then proliferation assay; assay type: cell-based, human; conditions: TH9402 PDT, 5-day proliferation assay
Description: Suspensions of cells were then incubated with 10 μM TH9402 for 40 minutes at 37° C. Cells were treated at 1×10^6 cells/mL in X-vivo-15 medium without phenol red (BioWhittaker, Walkersville, Md., USA) supplemented with 2,5% FBS. At the end of the incubation period, cells were spun down and the cell pellet resuspended in the X-vivo culture medium in the absence of dye, supplemented with 10% FBS. Cells were then placed in T-flasks (Corning, Cambridge, Mass., USA) for 90 minutes at 37° C. Following this second incubation in medium without dye, cells were exposed at 3 mm thickness to desired light energy, usually 5 joules/cm^2 using a previously described light delivery device (U.S. Pat. No. 5,798,523). Light energy was delivered using a fluorescent scanning lamp device with maximum wavelength around 512 nm.
The latter cells were serially diluted in order to obtain effector (treated cells) to target ratios ranging from 2:1 to 1:4 (4×10^4 treated effector cells/well) and incubated at 37° C. for 5 days. Eighteen hours prior to harvesting, 1 μCi of ^3H-thymidine was added. Cells were harvested using a PHD cell harvester (Cambridge Technology, Boston, Mass., USA). Radioactivity in the cell harvest was counted using a liquid scintillation counter (Beckman, Chicago, Ill., USA).
Another approach was used in this study to activate cells against specific target antigens. […]

[4] = test system: CEM T cell acute lymphoblastic leukemia cell line; assay: Phototoxicity of TH9402, limiting dilution assay of clonogenic cells, CEM admixed with irradiated PBMC; assay type: cell-based; conditions: 10 μM TH9402 40 min, 90 min dye-free, 5 joules/cm^2, LDA 12-14 days
Description: as §1, §2

Structure (SMILES): Br.COC(=O)c1ccccc1-c1c2ccc(=N)c(Br)c-2oc2c(Br)c(N)ccc12 [TH9402, 4,5-dibromorhodamine 123 (2-(4,5-dibromo-6-amino-3-imino-3H-xanthen-9-yl)-benzoic acid methyl ester) hydrobromide]
- reactivity towards MHC incompatible cells (proliferation in mixed lymphocyte culture) ([1]; PHA-activated cells treated with TH9402, 5 and 7.5 J/cm^2): abrogated
- decrease of cell counts of the treated cells in comparison to the medium control ([1]; three days after the photodynamic treatment): > 90%
- K562 cells escaping elimination by phototherapy in comparison to the media only sample [2]: less than 0.1%
- proliferation when exposed to C cells (mismatched unrelated) [3]: retained the capacity to proliferate
- proliferation when reexposed to cells from B [3]: did not proliferate
- CEM cells escaping elimination by phototherapy in comparison to the media only sample [4]: less than 0.1%
